ChEMBL document CHEMBL1147121, “Dammarane triterpenoids from the roots of Gentiana rigescens” (2007)
Activity calls are given as the source filed them. No cut-off for these calls is given here.

How the values were obtained:
[1] = Antifungal activity against […] musarum at 1 mg/mL by disc diffusion method; conditions: Gloeosporium
Phytophthora litchii = assay: Antifungal activity against Peronophythora litchii at 1 mg/mL by disc diffusion method
Glomerella cingulata = assay: Antifungal activity against Glomerella cingulata at 1 mg/mL by disc diffusion method
[2] = Antifungal activity against Glorosprium musarum at 1 ug/mL by disc diffusion method; type: functional; conditions: Gloeosporium

SMILES | Activity [1] | Activity (Phytophthora litchii) | Activity (Glomerella cingulata) | inhibition zone (IZ) [2] [mm]
C[C@]12CC[C@H](O[C@@H]3O[C@H](CO)[C@@H](O)[C@H](O)[C@H]3O)[C@](C)(CO)[C@@H]1CC[C@]1(C)[C@@H]2CC[C@@H]2[C@@H]([C@]3(C(=O)O)C[C@H](O)[C@H](O)[C@](C)(CO)O3)CC[C@]21C | inactive | inactive | inactive | 
CC1(C)O[C@](C(=O)O)([C@H]2CC[C@]3(C)[C@@H]2CC[C@@H]2[C@@]4(C)CC[C@H](O[C@@H]5O[C@H](CO)[C@@H](O)[C@H](O)[C@H]5O[C@@H]5O[C@H](CO)[C@@H](O)[C@H](O)[C@H]5O)C(C)(C)[C@@H]4CC[C@]23C)C[C@H](O)[C@@H]1O [GENTIRIGEOSIDE E] | inactive | inactive |  | 
CC1(C)O[C@](C(=O)O)([C@H]2CC[C@]3(C)[C@@H]2CC[C@@H]2[C@@]4(C)CC[C@H](O[C@@H]5O[C@H](CO)[C@@H](O)[C@H](O)[C@H]5O)[C@](C)(CO[C@@H]5O[C@H](CO)[C@@H](O)[C@H](O)[C@H]5O)[C@@H]4CC[C@]23C)C[C@H](O)[C@@H]1O [GENTIRIGEOSIDE C] | inactive | inactive |  | 
COC(=O)Nc1nc2ccccc2[nH]1 [CARBENDAZIM] |  |  |  | 4
CC1(C)O[C@](C(=O)O)([C@H]2CC[C@]3(C)[C@@H]2CC[C@@H]2[C@@]4(C)CC[C@H](O[C@@H]5O[C@H](CO)[C@@H](O)[C@H](O)[C@H]5O)[C@](C)(CO)[C@@H]4CC[C@]23C)C[C@H](O)[C@@H]1O [GENTIRIGEOSIDE A] | inactive | inactive |  | 
CC1(C)O[C@](C(=O)O)([C@H]2CC[C@]3(C)[C@@H]2CC[C@@H]2[C@@]4(C)CC[C@H](O[C@@H]5O[C@H](CO)[C@@H](O)[C@H](O)[C@H]5O[C@@H]5O[C@H](CO)[C@@H](O)[C@H](O)[C@H]5O)[C@](C)(CO)[C@@H]4CC[C@]23C)C[C@H](O)[C@@H]1O | inactive | inactive | inactive | 
CC1(C)O[C@](C(=O)O)([C@H]2CC[C@]3(C)[C@@H]2CC[C@@H]2[C@@]4(C)CC[C@H](O)[C@](C)(CO)[C@@H]4CC[C@]23C)C[C@H](O)[C@@H]1O | inactive | inactive | inactive | 
